Results: patent US6774109B2, “Inhibition of amylin release” (Societe de Conseils de Recherches et d'Applications …, priority 1995, dated 2004)
Like-named read-outs stand apart in the source and are kept apart here. Non-standard residues stand in square brackets, D forms with d. Residues, ends and D or L forms follow the SMILES beside them. *: point of attachment. X1 = O=C(CN1CCN(CCO)CC1)*

Tests used:
rat SSTR-5 [1] = test: Rat SSTR-5 binding assay ([125I-Tyr11]somatostatin-14, rat olfactory bulb membranes); conditions: rat SSTR-2 Ki / rat SSTR-5 Ki
Protocol: (§1) Crude membranes were prepared by homogenization of rat olfactory bulb cells (Zivic-Miller Laboratory, Inc., Zellenople, Pa.) in 20 ml of ice-cold 50 mM Tris-HCl with a POLYTRON homogenizer (setting 6, 15 sec). Buffer was added to obtain a final volume of 40 ml, and the homogenate was centrifuged in a Sorval SS-34 rotor at 39,000 g for 10 min at 0-4° C. The resulting supernatant was decanted and discarded. The pellet was rehomogenized in ice-cold buffer, diluted, and centrifuged as before. The final pellet was resuspended in the 10 mM Tris HCl and held on ice for the receptor binding assay.
(§2) The final assay volume was 0.3 ml. The incubations were terminated by rapid filtration through GF/C filters (pre-soaked in 0.3% polyethylenimine for 30 min) using a Brandel filtration manifold. Each tube and filter were then washed three times with 5 ml aliquots of ice-cold buffer.

rat SSTR-5 [2] = target: T1, rat SSTR-5 (Rattus norvegicus, UniProt P30938); test: as above
T1 construct: Crude membranes were prepared by homogenization of rat olfactory bulb cells; tissue Zivic-Miller Laboratory, Inc; host or cells: rat olfactory bulb
T1 sequence (P30938 1-363): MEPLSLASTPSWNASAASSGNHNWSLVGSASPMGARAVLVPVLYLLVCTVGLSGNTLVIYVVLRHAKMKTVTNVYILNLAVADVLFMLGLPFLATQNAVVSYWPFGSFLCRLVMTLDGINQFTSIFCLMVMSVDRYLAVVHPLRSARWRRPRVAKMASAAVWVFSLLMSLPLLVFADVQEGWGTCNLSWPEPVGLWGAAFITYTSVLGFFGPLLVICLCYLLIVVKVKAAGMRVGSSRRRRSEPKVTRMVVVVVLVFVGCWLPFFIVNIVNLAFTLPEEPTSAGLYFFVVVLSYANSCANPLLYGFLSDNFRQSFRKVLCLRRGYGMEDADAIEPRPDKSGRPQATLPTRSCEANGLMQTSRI
Protocol: as §1, §2

rat SSTR-2 = target: T2, rat SSTR-2 (Rattus norvegicus, UniProt P30680); test: Rat SSTR-2 binding assay ([125I-Tyr]MK-678, AR42J cell membranes)
T2 construct: Crude membranes were prepared by homogenizing AR42J cells; host or cells: AR42J rat pancreatic acinar tumor cells
T2 sequence (P30680 whole entry): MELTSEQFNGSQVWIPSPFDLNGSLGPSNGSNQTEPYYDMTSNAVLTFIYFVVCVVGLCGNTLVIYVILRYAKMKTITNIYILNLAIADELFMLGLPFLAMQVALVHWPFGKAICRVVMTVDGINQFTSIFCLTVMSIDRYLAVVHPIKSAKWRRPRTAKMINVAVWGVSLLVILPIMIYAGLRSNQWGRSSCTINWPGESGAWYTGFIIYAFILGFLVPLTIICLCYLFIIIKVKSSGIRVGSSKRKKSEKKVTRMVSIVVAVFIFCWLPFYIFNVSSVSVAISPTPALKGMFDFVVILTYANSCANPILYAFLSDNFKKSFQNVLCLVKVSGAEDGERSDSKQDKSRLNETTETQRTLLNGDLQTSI
Protocol: Crude membranes were prepared by homogenizing AR42J cells (ATCC, Rockville, Md.; ATCC No. CRL1992) in 20 ml of ice-cold 50 mM Tris-HCl (Buffer A) with a POLYTRON homogenizer (Brinkmann Instruments, Westbury, N.Y.) at setting 6, for 15 sec. Additional Buffer A was added to obtain a final volume of 40 ml, and the homogenate was centrifuged in a Sorval SS-34 rotor (DuPont, Newtown, Conn.) at 39,000 g for 10 min at 0-4° C. The resulting supernatant was decanted and discarded. The pellet was rehomogenized in ice-cold Buffer A, diluted, and centrifuged as before. The final pellet was resuspended in the 10 mM Tris HCl and held on ice for the receptor binding assay.
Aliquots of the membrane preparation were incubated for 90 min at 25° C. with 0.05 nM [^125I-Tyr]MK-678 (2000 Ci/mmol) in 50 mM HEPES (pH 7.4) containing a test peptide of various concentrations (e.g., 10^−11 to 10^−6 M), 10 mg/ml bovine serum albumin (fraction V) (Sigma Chemical Co., St. Louis, Mo.), MgCl2 (5 mM), Trasylol (200 KIU/ml), bacitracin (0.02 mg/ml), and phenylmethyl-sulphonyl fluoride (0.02 mg/ml). The final assay volume was 0.3 ml. The incubations were terminated by rapid filtration through GF/C filters (pre-soaked in 0.3% polyethylenimine for 30 min) using a filtration manifold (Brandel, Gaithersburg, Md.).

human SSTR-5 = target: T3, human SSTR-5 (Homo sapiens, UniProt P35346); test: Human SSTR-5 binding assay (transfected CHO-K1 cells); conditions: for SSTR-2/SSTR-5 (ratio of Ki's): human SSTR-2 Ki / human SSTR-5 Ki
T3 construct: expressed in transfected cells
T3 sequence (P35346 whole entry): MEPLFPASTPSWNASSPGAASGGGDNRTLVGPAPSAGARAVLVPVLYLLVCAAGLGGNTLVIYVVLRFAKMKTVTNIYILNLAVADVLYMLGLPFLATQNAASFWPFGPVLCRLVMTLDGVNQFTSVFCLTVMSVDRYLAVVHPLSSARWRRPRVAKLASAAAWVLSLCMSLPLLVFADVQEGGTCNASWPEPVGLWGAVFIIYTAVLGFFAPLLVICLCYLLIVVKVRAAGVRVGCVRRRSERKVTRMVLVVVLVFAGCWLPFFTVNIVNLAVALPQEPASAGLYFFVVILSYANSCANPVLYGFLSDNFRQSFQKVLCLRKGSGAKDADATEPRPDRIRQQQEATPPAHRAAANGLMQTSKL
Text: The human SSTR-5 cDNA clone has been described in the literature. See Panetta, et al., Mol Pharmacol., 45:417-427 (1994); O'Carroll, et al., Mol Pharmacol, 46:291-298 (1994); Yamada, et al., Biochem. Biophys. Res. Commun., 195:844 (1993) [FIG. 1 depicts the DNA sequence of the human SSTR-5.] Using a sense 5′-oligonucleotide primer, immediately preceeding the start codon (residue 30-50), and an antisense 3′-oligonucleotide primer, immediately preceeding the stop codon (residues 1180-1200), a 1170 base pair fragment comprising the full-length coding sequence of the receptor was obtained by standard Reverse-transcription PCR. See Yamada, et al., Biochem. Biophys. Res. Commun., 195:844 (1993) [FIG. 1 depicts the DNA sequence of the human SSTR-5]; Innis, et al., PCR Protocols, A Guide to Methods and Applications, Academic Press, 1990. The identity of the cDNA fragment was verified by DNA sequencing using the dideoxy-chain termination method [Sanger, et al., Proc Natl Acad Sci USA., 74:5463 (1977)] with the Sequenase kit (United States Biochemicals, Arlington Heights, Ill.).
The human SSTR-5 cDNA fragment was inserted into a mammalian expression vector, pCMV to generate the expression plasmid pCMV-human SSTR-5 by blunt-end ligation.
Membranes from the stably transfected cell line were used in the rat SSTR-5 binding protocol described above.

human SSTR-2 = human SSTR-2 (Homo sapiens, UniProt P30874); test: Human SSTR-2 binding assay (transfected CHO-K1 cells)
Chain of human SSTR-2 (P30874 whole entry, the tested form may be a part): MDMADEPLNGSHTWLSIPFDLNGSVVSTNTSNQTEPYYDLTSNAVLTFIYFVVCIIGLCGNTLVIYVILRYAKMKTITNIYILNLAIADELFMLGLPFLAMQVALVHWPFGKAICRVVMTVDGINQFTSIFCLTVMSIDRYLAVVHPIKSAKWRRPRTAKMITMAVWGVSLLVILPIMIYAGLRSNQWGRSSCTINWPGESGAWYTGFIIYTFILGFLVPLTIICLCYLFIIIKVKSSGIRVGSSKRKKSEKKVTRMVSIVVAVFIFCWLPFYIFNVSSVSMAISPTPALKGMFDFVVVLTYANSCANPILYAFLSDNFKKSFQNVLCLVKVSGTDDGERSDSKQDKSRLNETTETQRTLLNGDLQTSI
Protocol: CHO-K1 (ovary, Chinese hamster) cells were obtained from the American Type Culture Collection, Rockville, Md. […] The cells were grown and maintained in Ham's F12 media (Gibco BRL, Grand Island, N.Y.) supplemented with 10% fetal bovine serum under standard tissue culture conditions.
For transfection, the cells were seeded at a density 1×10^6/60 cm^2 plate (Baxter Scientific Products, McGaw Park, Ill.). DNA mediated transfection was carried out using the calcium phosphate co-precipitation method (Ausubel, et al., Current Protocols in Molecular Biology, John Wiley & Sons, 1987). The plasmid pRSV-neo (ATCC; ATCC No. 37198) was included as a selectable marker at 1/10 the concentration of the expression plasmid. CHO-K1 clonal cell lines that have stably inherited the transfected DNA were selected for growth in Ham's F12 media containing 10% fetal bovine serum and 0.5 mg/ml of G418 (Sigma Chemical Co., St. Louis, Mo.). The cells were ring-cloned and expanded in the same media for analysis.

rat Pancreas cells = test: Amylin release inhibition assay using rat pancreas cells (isolated perfused pancreas); type: cell-based; conditions: 16.7 mM glucose, 10 nM test compound
Protocol: Sprague-Dawley rats (male, 200-300 g) (Harlan-Olac, Bicester, Oxon, UK) were anaesthetized with sodium pentobarbitone (60 mg/kg). […] The pancreases were perfused, as described in Dunmore, et al., J. Endocrinol., 1993, 137, 375-381, with modified Krebs-Ringer bicarbonate buffer containing 3% dextran T40 (Pharmacia, Milton Keynes, Bucks, UK) and 1% high purity bovine serum albumin (Sigma, Poole, Dorset, UK). After an initial 15-min period to allow for stabilization, the isolated pancreases were perfused at sequential 10 min. intervals, at a rate of 4.5-5.0 ml/min, with the following buffer compositions: 1) Buffer 1: Krebs-Ringer bicarbonate buffer containing 5.6 mM glucose (to examine baseline amylin secretion); 2) Buffer 2: Krebs-Ringer bicarbonate buffer containing 16.7 mM glucose (to examine high glucose stimulated secretion); 3) Buffer 3: Krebs-Ringer bicarbonate buffer containing 16.7 mM glucose in the presence of 10 nM of test compound (to examine the activity of test compounds on high glucose stimulated amylin secretion); and 4) Buffer 2: Krebs-Ringer bicarbonate buffer containing 16.7 mM glucose (to re-examine high glucose stimulated amylin secretion in order to assess the reversibility of the activity of the test compounds).
Fractions of the perfusate were collected on ice every minute in the presence of 400 KIU/ml aprotinin (Bayer, Hayward's Heath, W. Sussex, UK). Fractions were stored at −20° C. until assay. Perfusates collected were divided into 3×1.5 ml aliquots and assayed for amylin by radioimmunoassay as described in Dunmore, et al., J. Endocrinol., 1993, 137:375. Amylin was assayed using reagents supplied by Peninsula Laboratories Ltd. (St. Helens, Merseyside, UK). These reagents include ^125I-labelled amylin, rabbit anti-rat amylin antibody, and rat amylin. Bound amylin was precipitated using goat anti-rabbit second antibody—coupled cellulose (Sac-Cal, IDS, Boldon, Tyneawear, UK).

[3] = rat, AR42J cell membranes, radioligand [125I-Tyr]MK-678 0.05 nM, read-out: Ki SSTR-2

Q: C[C@@H](O)[C@H](NC(=O)[C@H](Cc1ccccc1)NC(=O)[C@@H](NC(=O)[C@H](CCCCN)NC(=O)[C@@H](Cc1c[nH]c2ccccc12)NC(=O)[C@H](Cc1ccccc1)NC(=O)[C@H](Cc1ccccc1)NC(=O)[C@H](N)Cc1ccccc1)[C@@H](C)O)C(=O)O [Analog I, H-D-Phe-Phe-Phe-D-Trp-Lys-Thr-Phe-Thr-OH] (H-[dF]FF[dW]KTFT-OH) was tested. Which “SSTR-2/SSTR-5 (ratio of Ki's)” value (rat SSTR-5 [1]) did it give?
A: 10.4

Q: What about the Ki (rat SSTR-5 [2]; read-out: Ki SSTR-5) of the same compound?
A: 3.57 nM

Q: And the Ki (rat SSTR-2; [3])?
A: 37.2 nM

Q: And the Ki (human SSTR-5)?
A: 12.4 nM

Q: What about the “SSTR-2/SSTR-5 (ratio of Ki's)” value (human SSTR-5) of the same compound?
A: 1.14

Q: What about the Ki (human SSTR-2) of the same compound?
A: 14.2 nM

Q: C[C@@H](O)[C@H](NC(=O)[C@H](Cc1ccccc1)NC(=O)[C@@H](NC(=O)[C@H](CCCCN)NC(=O)[C@@H](Cc1c[nH]c2ccccc12)NC(=O)[C@H](Cc1ccccc1)NC(=O)[C@H](Cc1ccccc1)NC(=O)[C@@H](Cc1ccccc1)NC(=O)CN1CCN(CCO)CC1)[C@@H](C)O)C(N)=O [Analog II] (X1-[dF]FF[dW]KTFT-NH2) was tested. Which Ki (rat SSTR-5 [2]; read-out: Ki SSTR-5) did it give?
A: 5.38 nM

Q: And the Ki (rat SSTR-2; [3])?
A: 305 nM

Q: What about the Ki (human SSTR-5; human receptor in CHO-K1 cells, LC 0.05 nM, LEC 0.18 nM, read-out: Ki SSTR-5) of the same compound?
A: 1.29 nM

Q: What about the Ki (human SSTR-2) of the same compound?
A: 4.15 nM

Q: Which results are given for CC(C)[C@@H]1NC(=O)[C@H](CCCCN)NC(=O)[C@@H](Cc2c[nH]c3ccccc23)NC(=O)[C@H](Cc2ccc(O)cc2)NC(=O)[C@@H](NC(=O)[C@H](N)Cc2ccc3ccccc3c2)CSSC[C@@H](C(=O)N[C@H](C(N)=O)[C@@H](C)O)NC1=O [BIM-23014, H-D-P-Nal-Cys-Tyr-D-Trp-Lys-Val-Cys-Ser-NH2, reference compound]?
A: effect on glucose-induced amylin secretion (in words) (rat Pancreas cells): no effect; Ki (rat SSTR-5 [2]): 64.8 nM; Ki (rat SSTR-2): 0.34 nM; Ki (human SSTR-2): 1.09 nM

Q: Which results are given for C[C@@H](O)[C@H](NC(=O)[C@H](Cc1ccccc1)NC(=O)[C@@H](NC(=O)[C@H](CCCCN)NC(=O)[C@@H](Cc1c[nH]c2ccccc12)NC(=O)[C@H](Cc1ccccc1)NC(=O)[C@H](Cc1ccccc1)NC(=O)[C@H](N)Cc1ccccc1)[C@@H](C)O)C(N)=O [BIM-23052, H-D-Phe-Phe-Phe-D-Trp-Lys-Thr-Phe-Thr-NH2] (H-[dF]FF[dW]KTFT-NH2)?
A: decrease in glucose stimulated amylin secretion (rat Pancreas cells): 78%; SSTR-2/SSTR-5 (ratio of Ki's) (rat SSTR-5 [1]): 2.54; Ki (rat SSTR-5 [2]; read-out: Ki SSTR-5): 3.16 nM; Ki (rat SSTR-2): 8.04 nM; SSTR-2/SSTR-5 (ratio of Ki's) (human SSTR-5): 11.5; Ki (human SSTR-2): 14.1 nM

Q: C[C@@H](O)[C@@H]1NC(=O)[C@H](CCCCN)NC(=O)[C@@H](Cc2c[nH]c3ccccc23)NC(=O)[C@H](Cc2ccccc2)NC(=O)[C@@H](NC(=O)[C@H](N)Cc2ccccc2)CSSC[C@@H](C(=O)N[C@H](CO)[C@@H](C)O)NC1=O [SMS 201-995, H-D-Phe-Cys-Phe-D-Trp-Lys-Thr-Cys-Threoninol, reference compound] was tested. Which Ki (rat SSTR-5 [2]) did it give?
A: 9.14 nM

Q: Which results are given for Somatostatin-14 [reference compound]?
A: effect on glucose-induced amylin secretion (in words) (rat Pancreas cells): inhibited glucose-induced amylin secretion; SSTR-2/SSTR-5 (ratio of Ki's) (rat SSTR-5 [1]): 0.34; SSTR-2/SSTR-5 (ratio of Ki's) (human SSTR-5): 0.20
